The results in this text go back to US11746087B1, “C4-carboxylic acid-substituted tryptamine derivatives and methods of using” (priority 2022, dated 2023).

In general, IC50 refers to the concentration that gives 50% inhibition. Usually EC50 stands for the concentration needed to bring the measured effect to its halfway point.

One experiment concerns the target T1, CHRM1 (Homo sapiens, UniProt P11229).
T1 sequence (P11229 1-460): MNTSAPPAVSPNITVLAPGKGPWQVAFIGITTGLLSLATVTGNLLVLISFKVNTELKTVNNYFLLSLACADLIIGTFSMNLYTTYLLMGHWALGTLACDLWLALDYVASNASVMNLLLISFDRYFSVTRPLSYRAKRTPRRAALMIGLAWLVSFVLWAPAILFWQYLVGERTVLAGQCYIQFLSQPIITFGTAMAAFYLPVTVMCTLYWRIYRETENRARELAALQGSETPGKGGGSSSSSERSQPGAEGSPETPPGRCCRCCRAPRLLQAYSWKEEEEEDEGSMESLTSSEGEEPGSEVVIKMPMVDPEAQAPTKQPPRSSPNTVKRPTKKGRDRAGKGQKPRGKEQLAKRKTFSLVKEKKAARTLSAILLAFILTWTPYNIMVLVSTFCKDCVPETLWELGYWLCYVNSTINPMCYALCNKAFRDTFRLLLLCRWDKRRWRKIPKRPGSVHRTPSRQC
Put plainly: cell-based.

Experiment [1] deals with T2, HTR3A (5-HT3A) (Homo sapiens, UniProt P46098).
T2 sequence (P46098 24-478): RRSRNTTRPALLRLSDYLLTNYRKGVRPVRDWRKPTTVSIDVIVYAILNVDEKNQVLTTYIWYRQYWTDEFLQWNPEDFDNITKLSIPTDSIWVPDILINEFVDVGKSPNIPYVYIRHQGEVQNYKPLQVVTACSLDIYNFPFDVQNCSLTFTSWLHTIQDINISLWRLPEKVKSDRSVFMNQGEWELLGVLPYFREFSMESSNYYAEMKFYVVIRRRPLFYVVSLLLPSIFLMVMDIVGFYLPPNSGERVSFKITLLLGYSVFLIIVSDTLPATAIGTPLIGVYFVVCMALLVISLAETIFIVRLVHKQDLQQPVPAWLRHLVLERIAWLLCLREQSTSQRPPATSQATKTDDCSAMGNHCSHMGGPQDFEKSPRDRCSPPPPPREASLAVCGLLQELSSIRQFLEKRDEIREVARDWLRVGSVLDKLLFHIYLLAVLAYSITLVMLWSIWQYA
The experiment is described as follows: Ion channel assay (FLIPR membrane potential), opener. The class given is cell-based.

Experiment [2] addresses T3, OPRD1 (Homo sapiens, UniProt P41143). The experiment is described as follows: EFC-based cAMP secondary messenger assay, antagonist mode. The class given is cell-based.
Experiment [3] concerns the target T3, OPRD1. Put plainly: EFC-based cAMP secondary messenger assay, agonist mode. The class given is cell-based.
The next experiment has as its target SERT (Homo sapiens, UniProt P31645). Put plainly: cell-based. The settings on record: transporter.
The target of experiment [4] is T4, HTR1A (5-HT1A) (Homo sapiens, UniProt P08908).
T4 sequence (P08908 1-422): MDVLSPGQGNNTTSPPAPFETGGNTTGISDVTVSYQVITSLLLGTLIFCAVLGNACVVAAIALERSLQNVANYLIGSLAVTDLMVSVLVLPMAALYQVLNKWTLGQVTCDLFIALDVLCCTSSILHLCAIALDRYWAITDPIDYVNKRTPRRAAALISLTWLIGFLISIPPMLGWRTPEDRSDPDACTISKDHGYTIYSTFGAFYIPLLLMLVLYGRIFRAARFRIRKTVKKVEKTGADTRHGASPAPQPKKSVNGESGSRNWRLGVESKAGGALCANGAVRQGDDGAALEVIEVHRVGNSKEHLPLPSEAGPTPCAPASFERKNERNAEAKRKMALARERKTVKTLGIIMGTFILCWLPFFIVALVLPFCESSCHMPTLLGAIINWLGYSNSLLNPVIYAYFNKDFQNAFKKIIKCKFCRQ
Put plainly: EFC-based cAMP secondary messenger assay, antagonist mode. The class given is cell-based.

In the next experiment the target is T5, CHRM2 (Homo sapiens, UniProt P08172).
T5 sequence (P08172 1-466): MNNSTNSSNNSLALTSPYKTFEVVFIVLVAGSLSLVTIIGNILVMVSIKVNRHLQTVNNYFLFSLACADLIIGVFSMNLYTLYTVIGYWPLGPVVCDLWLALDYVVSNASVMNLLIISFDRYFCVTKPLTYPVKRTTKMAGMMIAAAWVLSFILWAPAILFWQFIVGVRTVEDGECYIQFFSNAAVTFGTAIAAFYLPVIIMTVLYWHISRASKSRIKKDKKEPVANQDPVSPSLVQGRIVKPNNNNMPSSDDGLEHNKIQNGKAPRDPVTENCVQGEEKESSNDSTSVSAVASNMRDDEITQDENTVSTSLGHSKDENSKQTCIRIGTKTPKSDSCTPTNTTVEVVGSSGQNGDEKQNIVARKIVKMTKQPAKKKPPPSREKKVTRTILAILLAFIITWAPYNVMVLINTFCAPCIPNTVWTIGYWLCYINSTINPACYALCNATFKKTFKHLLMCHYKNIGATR
The experiment is described as follows: EFC-based cAMP secondary messenger assay, agonist mode. The format is cell-based.

The next experiment deals with DRD1 (Homo sapiens, UniProt P21728). The experiment is described as above. The format is cell-based.
Chain of DRD1 (P21728 whole entry): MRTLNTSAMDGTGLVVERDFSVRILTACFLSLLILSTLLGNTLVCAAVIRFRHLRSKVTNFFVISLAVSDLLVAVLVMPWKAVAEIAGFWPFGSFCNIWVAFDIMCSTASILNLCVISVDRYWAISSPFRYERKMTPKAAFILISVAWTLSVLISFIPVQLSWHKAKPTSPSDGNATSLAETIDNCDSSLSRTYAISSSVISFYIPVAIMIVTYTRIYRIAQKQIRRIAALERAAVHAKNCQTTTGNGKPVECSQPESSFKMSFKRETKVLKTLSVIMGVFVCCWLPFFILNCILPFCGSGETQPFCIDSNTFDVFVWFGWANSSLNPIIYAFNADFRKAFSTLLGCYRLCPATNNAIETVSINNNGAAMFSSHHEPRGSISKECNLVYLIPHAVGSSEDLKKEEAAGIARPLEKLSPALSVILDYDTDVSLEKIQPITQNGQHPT
The target in a further experiment is AVPR1A (Homo sapiens, UniProt P37288). Put plainly: Calcium secondary messenger assay, antagonist mode. The class given is cell-based.
Chain of AVPR1A (P37288 whole entry): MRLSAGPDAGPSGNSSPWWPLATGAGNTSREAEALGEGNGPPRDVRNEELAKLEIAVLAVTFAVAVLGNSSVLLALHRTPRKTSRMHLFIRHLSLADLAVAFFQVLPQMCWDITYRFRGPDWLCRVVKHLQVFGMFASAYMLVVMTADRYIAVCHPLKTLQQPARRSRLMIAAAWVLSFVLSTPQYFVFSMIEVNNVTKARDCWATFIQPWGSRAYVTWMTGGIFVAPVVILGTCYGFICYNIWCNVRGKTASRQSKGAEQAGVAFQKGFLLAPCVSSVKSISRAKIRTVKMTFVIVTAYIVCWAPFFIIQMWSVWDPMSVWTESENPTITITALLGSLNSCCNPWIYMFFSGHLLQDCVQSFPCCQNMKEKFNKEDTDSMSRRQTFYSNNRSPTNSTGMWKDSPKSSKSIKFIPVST
For experiment [5], the target named is T4, HTR1A (5-HT1A). Put plainly: EFC-based cAMP secondary messenger assay, agonist mode. The format is cell-based.
Another experiment deals with HTR2B (5-HT2B) (Homo sapiens, UniProt P41595). Put plainly: Calcium secondary messenger assay, antagonist mode. The class given is cell-based.
Chain of HTR2B (5-HT2B) (P41595 whole entry): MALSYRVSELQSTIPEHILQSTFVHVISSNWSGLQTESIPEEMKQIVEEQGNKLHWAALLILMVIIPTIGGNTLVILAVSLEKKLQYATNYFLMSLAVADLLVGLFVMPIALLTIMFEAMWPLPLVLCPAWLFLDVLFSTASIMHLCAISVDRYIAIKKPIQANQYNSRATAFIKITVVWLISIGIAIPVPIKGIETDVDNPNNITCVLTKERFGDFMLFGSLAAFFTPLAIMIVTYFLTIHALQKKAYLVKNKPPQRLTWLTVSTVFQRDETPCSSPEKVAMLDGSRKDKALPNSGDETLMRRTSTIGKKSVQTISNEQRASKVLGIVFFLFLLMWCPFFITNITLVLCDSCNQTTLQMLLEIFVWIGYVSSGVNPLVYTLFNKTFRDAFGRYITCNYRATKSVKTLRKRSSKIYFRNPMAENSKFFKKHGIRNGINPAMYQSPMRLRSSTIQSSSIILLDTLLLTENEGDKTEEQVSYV
The target in experiment [6] is T2, HTR3A (5-HT3A). Put plainly: Ion channel assay (FLIPR membrane potential), blocker. The format is cell-based.
In another experiment the target is T6, ADRA1A (Homo sapiens, UniProt P35348).
T6 sequence (P35348 1-466): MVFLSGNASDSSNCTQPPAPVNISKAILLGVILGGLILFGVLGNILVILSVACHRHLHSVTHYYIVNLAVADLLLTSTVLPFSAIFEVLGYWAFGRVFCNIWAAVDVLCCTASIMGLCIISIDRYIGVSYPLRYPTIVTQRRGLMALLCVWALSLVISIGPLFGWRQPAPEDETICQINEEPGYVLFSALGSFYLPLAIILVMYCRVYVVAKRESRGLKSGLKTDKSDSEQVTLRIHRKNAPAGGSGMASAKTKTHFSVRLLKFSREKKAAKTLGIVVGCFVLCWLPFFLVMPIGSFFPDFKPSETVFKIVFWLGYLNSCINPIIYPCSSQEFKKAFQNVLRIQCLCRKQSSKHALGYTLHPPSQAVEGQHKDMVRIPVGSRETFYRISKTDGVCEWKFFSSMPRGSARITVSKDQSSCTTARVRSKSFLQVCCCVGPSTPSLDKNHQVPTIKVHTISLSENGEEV
The experiment is described as follows: Calcium secondary messenger assay, agonist mode. The class given is cell-based.

T3 sequence (P41143 whole entry): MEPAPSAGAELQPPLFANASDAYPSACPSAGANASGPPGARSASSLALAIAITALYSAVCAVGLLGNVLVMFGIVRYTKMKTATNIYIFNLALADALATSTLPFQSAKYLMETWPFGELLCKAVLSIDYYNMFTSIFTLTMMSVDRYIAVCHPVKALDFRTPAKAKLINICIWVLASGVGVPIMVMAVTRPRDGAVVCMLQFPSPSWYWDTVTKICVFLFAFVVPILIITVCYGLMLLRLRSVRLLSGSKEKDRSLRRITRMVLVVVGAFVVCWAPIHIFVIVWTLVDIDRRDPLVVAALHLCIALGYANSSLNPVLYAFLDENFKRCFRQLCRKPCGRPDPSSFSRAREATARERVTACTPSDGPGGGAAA
Chain of SERT (P31645 whole entry): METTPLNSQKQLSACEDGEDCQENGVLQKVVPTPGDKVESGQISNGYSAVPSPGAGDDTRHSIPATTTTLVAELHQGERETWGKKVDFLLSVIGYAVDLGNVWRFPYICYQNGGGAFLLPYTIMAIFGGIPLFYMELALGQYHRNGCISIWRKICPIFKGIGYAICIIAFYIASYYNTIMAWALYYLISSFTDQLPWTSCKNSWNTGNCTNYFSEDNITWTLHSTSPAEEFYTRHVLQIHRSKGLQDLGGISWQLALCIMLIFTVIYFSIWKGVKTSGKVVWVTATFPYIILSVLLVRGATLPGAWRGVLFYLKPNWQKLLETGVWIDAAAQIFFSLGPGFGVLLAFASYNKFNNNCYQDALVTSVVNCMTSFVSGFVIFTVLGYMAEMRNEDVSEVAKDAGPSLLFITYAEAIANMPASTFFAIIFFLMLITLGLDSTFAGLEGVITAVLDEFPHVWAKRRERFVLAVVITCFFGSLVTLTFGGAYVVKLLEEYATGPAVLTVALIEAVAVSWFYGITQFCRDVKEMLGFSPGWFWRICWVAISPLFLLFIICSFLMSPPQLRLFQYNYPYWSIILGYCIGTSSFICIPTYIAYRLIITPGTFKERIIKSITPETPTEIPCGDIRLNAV

For the molecule `CN(C)CCc1c[nH]c2cccc(OC(=O)CC3CC3)c12` [C(IV)], the IC50 against CHRM1 (CHRM1, GPCR, ANT (antagonist)) is more than 100 µM; on OPRD1 [2], more than 100 µM; against SERT (BL (blocker)), 67.9 µM; against HTR1A (5-HT1A) [4], more than 100 µM; at AVPR1A it was more than 100 µM; at HTR2B (5-HT2B), 0.059 µM. Besides, at HTR3A (5-HT3A) [6], the midpoint of inhibition, the IC50, lay at 76.7 µM. Moreover, the EC50 was more than 100 µM on HTR3A (5-HT3A) [1]; 37.8 µM at OPRD1 [3]; more than 100 µM at CHRM2; more than 100 µM at DRD1; 5.56 µM at HTR1A (5-HT1A) [5]; more than 100 µM on ADRA1A.

As to `COc1ccc(C(=O)Oc2cccc3[nH]cc(CCN(C)C)c23)cc1` [C(V)], the IC50 is more than 100 µM against CHRM1 (CHRM1, GPCR, antagonist (ANT)); more than 100 µM against OPRD1 [2]; more than 100 µM on SERT (blocker (BL)); more than 100 µM against HTR1A (5-HT1A) [4]; more than 100 µM on AVPR1A; 0.012 µM at HTR2B (5-HT2B). Inhibition on HTR3A (5-HT3A) [6] was half-maximal at 33.9 µM (IC50). For the same molecule, the EC50 at HTR3A (5-HT3A) [1] is more than 100 µM; on OPRD1 [3], 51.5 µM; at CHRM2, more than 100 µM; at DRD1, more than 100 µM; on HTR1A (5-HT1A) [5], 7.08 µM; on ADRA1A, more than 100 µM.

For `CN(C)CCc1c[nH]c2cccc(OC(=O)c3c(F)c(F)c(F)c(F)c3F)c12` [C(VI)], the IC50 against CHRM1 (CHRM1, GPCR, ANT (antagonist)) is more than 100 µM; on OPRD1 [2], more than 100 µM; against SERT (BL (blocker)), 34.3 µM; against HTR1A (5-HT1A) [4] it was more than 100 µM; at AVPR1A it was more than 100 µM; on HTR2B (5-HT2B), 0.03 µM. This molecule also displayed a 50% inhibitory concentration (IC50) against HTR3A (5-HT3A) [6] of 55.1 µM. Besides, the half-maximal effective concentration (EC50) on HTR3A (5-HT3A) [1] is more than 100 µM; on OPRD1 [3], 59.4 µM; at CHRM2, more than 100 µM; on DRD1 it was more than 100 µM; on HTR1A (5-HT1A) [5], 2.21 µM; at ADRA1A, 34.4 µM.

Turning to `CN(C)CCc1c[nH]c2cccc(OC(=O)c3cccc4c3OCCO4)c12` [C(XX)], the concentration for half-maximal inhibition (IC50) is more than 100 µM at CHRM1 (CHRM1, GPCR, ANT (antagonist)); more than 100 µM at OPRD1 [2]; 14.7 µM at SERT (BL (blocker)); more than 100 µM at HTR1A (5-HT1A) [4]; more than 100 µM on AVPR1A; 0.016 µM on HTR2B (5-HT2B). At HTR3A (5-HT3A) [6], this molecule came in with an IC50 of 3.77 µM. The EC50 was more than 100 µM at HTR3A (5-HT3A) [1]; more than 100 µM on OPRD1 [3]; more than 100 µM on CHRM2; more than 100 µM at DRD1; 2.03 µM on HTR1A (5-HT1A) [5]; more than 100 µM on ADRA1A.

On to `CN(C)CCc1c[nH]c2cccc(OC(=O)c3ccc(Br)cc3)c12` [C(I)], for which the IC50 against CHRM1 (CHRM1, GPCR, ANT (antagonist)) is 22.9 µM; at OPRD1 [2], more than 100 µM; at SERT (BL (blocker)), more than 100 µM; at HTR1A (5-HT1A) [4], more than 100 µM; on AVPR1A, more than 100 µM; at HTR2B (5-HT2B) it was 4.94 µM. Inhibition against HTR3A (5-HT3A) [6] was half-maximal at 7.52 µM (IC50). Further, the EC50 at HTR3A (5-HT3A) [1], on OPRD1 [3], at CHRM2, on DRD1, on HTR1A (5-HT1A) [5] and on ADRA1A was more than 100 µM in each case.
